This assay concerns the target Recombinant human JAK1 catalytic domain (Homo sapiens (Human), UniProt P23458). Put plainly: JAK1 kinase assay (Z'-LYTE Tyr 6 Peptide). The format is biochemical. The note with it: read-out: inhibition percentage (IR %). How it is done: JAK1/2/3 kinase assay are performed in vitro using Kit-Tyr 6 Peptide (Invitrogen, Cat. No. PV4122). TYK2 kinase assay are performed in vitro using Z′-LYTE™ Kinase Assay Kit-Tyr 3 Peptide (Invitrogen, Cat. No. PV3192). […] All compounds are initially tested at 8 different concentrations (1 μM down to 0.0003 μM) using a 1:3 serial dilution scheme.

[1] abbreviates: JAK1 kinase assay, 0.3 uM concentration.

Where two headings read alike, the source gives them in different places.

Sequence of Recombinant human JAK1 catalytic domain (P23458 875-1153): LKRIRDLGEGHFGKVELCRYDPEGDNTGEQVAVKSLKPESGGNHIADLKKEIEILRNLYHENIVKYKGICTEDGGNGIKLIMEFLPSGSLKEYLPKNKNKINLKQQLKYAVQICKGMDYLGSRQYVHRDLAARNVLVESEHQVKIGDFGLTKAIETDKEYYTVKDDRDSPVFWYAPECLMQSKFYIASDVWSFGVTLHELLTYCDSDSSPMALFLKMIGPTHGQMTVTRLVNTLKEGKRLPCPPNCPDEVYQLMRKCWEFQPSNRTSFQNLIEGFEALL

For `CN(c1ccc(C(=O)Nc2cccc(Cl)c2)cc1F)[C@@H]1CCN(c2ncnc3[nH]ccc23)C1` [Compound 185], under setting [1], the inhibition at 0.3 µM was 50 to 100%.

`C#CCN(C)[C@@H]1CCN(c2ncnc3[nH]ccc23)C1` [Compound 65]: under setting [1], the inhibition at 0.3 µM is 20 to 50%. As for `CN(c1ccc(NCc2ccc(F)cc2)cn1)[C@@H]1CCN(c2ncnc3[nH]ccc23)C1` [Compound 230, (R)—N^5-(4-fluorobenzyl)-N^2-(1-(7H-pyrrolo[2,3-d]pyrimidin-4-yl)pyrrolidin-3-yl)-N^2-methylpyridine-2,5-diamine], the inhibition at 0.3 µM fell in the range of 50 to 100%.

In the case of `COCC(=O)Nc1ccc(N(C)[C@@H]2CCN(c3ncnc4[nH]ccc34)C2)nc1` [Compound 228], the inhibition at 0.3 µM under setting [1] fell in the range of 20 to 50%.

Consider `CN(c1ccc(C#N)cc1Cl)[C@@H]1CCN(c2ncnc3[nH]ccc23)C1` [Compound 112], for which the inhibition at 0.3 µM under setting [1] lay within 50 to 100%. On the same count and under the same terms, the same measure for `CN(c1ccc(C(=O)Nc2cccnc2)cn1)[C@@H]1CCN(c2ncnc3[nH]ccc23)C1` [Compound 198]: 20 to 50%; for `CN(c1ccc(C#N)cc1F)[C@@H]1CCN(c2ncnc3[nH]ccc23)C1` [Compound 103, (R)-4-((1-(7H-pyrrolo[2,3-d]pyrimidin-4-yl)pyrrolidin-3-yl)(methyl)amino)-3-fluorobenzonitrile]: 50 to 100%.

As to `CN(C(=O)CS(C)(=O)=O)[C@@H]1CCN(c2ncnc3[nH]ccc23)C1` [Compound 27], the inhibition at 0.3 µM under setting [1] was in the range of 50 to 100%. Consider `CN(c1ccc(NS(=O)(=O)Cc2ccc(F)cc2)cn1)[C@@H]1CCN(c2ncnc3[nH]ccc23)C1` [Compound 221], for which the inhibition at 0.3 µM under setting [1] lay in the range of 20 to 50%. On the same count and under the same terms, the figure for `CN(c1ncc(C#N)s1)[C@@H]1CCN(c2ncnc3[nH]ccc23)C1` [Compound 95] is 50 to 100%; for `CN(c1ccc(NS(=O)(=O)Cc2cccc(F)c2)cn1)[C@@H]1CCN(c2ncnc3[nH]ccc23)C1` [Compound 220] it is 50 to 100%.

For `N#Cc1cnc2c(c1)[nH]c(=O)n2[C@@H]1CCN(c2ncnc3[nH]ccc23)C1` [Compound 165, (R)-3-(1-(7H-pyrrolo[2,3-d]pyrimidin-4-yl)pyrrolidin-3-yl)-2-oxo-2,3-dihydro-1H-imidazo[4,5-b]pyridine-6-carbonitrile], the inhibition at 0.3 µM under setting [1] was in the range of 20 to 50%. Still for that read-out and setting: the same measure for `CN(c1nc(Cl)c(C#N)cc1F)[C@@H]1CCN(c2ncnc3[nH]ccc23)C1` [Compound 87]: 50 to 100%; for `CN(c1ccc(NC(=O)c2cccc(F)c2)cn1)[C@@H]1CCN(c2ncnc3[nH]ccc23)C1` [Compound 226]: 50 to 100%; for `CN(c1ccc(NS(=O)(=O)c2cc(F)ccc2F)cn1)[C@@H]1CCN(c2ncnc3[nH]ccc23)C1` [Compound 213]: 20 to 50%. Turning to `CN(c1ccc([N+](=O)[O-])c(N)n1)[C@@H]1CCN(c2ncnc3[nH]ccc23)C1` [Compound 78], the inhibition at 0.3 µM under setting [1] lay in the range of 20 to 50%. On the same count and under the same terms, the figure for `CN(C(=O)Cc1ccc(C#N)cc1)[C@@H]1CCN(c2ncnc3[nH]ccc23)C1` [Compound 20] is 50 to 100%. The same measure, in the same setting: the figure for `COCC(=O)N(C)[C@@H]1CCN(c2ncnc3[nH]ccc23)C1` [Compound 4] is 20 to 50%; for `CN(C)C(=O)c1ccc(N(C)[C@@H]2CCN(c3ncnc4[nH]ccc34)C2)nc1` [Compound 173] it is 20 to 50%. The same measure, in the same setting: the figure for `CN(c1ccc(C(=O)NC(CO)c2ccc(Cl)cc2)cc1F)[C@@H]1CCN(c2ncnc3[nH]ccc23)C1` (some centres unmarked) [Compound 201] is 50 to 100%; for `CN([C@@H]1CCN(c2ncnc3[nH]ccc23)C1)S(=O)(=O)c1cccc(C#N)c1` [Compound 10] it is 50 to 100%. On to `CCS(=O)(=O)Nc1ccc(N(C)[C@@H]2CCN(c3ncnc4[nH]ccc34)C2)nc1` [Compound 210, (R)—N-6-((1(7H-pyrrolo[2,3-d]pyrimidin-4-yl)pyrrolidin-3-yl)(methyl)(amino)pyridin-3-yl)ethanesulfonamfide], for which the inhibition at 0.3 µM lay within 50 to 100%.

Take `Cc1ccc(CS(=O)(=O)Nc2ccc(N(C)[C@@H]3CCN(c4ncnc5[nH]ccc45)C3)nc2)cc1` [Compound 222]: the inhibition at 0.3 µM under setting [1] is 50 to 100%.

By inhibition is commonly meant the drop in the measured response relative to a control, in per cent.
